Data: publication PMC12876586, “Chronological lifespan extension and nucleotide salvage inhibition in yeast by isonicotinamide supplementation” (The Journal of Biological Chemistry, 2026)

Columns and labels:
Type in all cases: biochemical
[1] = target: T1, Pho8 (Saccharomyces cerevisiae, UniProt P11491); assay: pNPP hydrolysis, A400, whole cell extract of pho13Δ; details: pNPP substrate, Mg2+, Zn2+, pH 8.8, 37 °C, 15 min; weak inhibitor
T1 construct: native enzyme in whole cell extract of pho13Δ strain (Pho8 the remaining alkaline phosphatase)
T1 sequence (P11491 1-534): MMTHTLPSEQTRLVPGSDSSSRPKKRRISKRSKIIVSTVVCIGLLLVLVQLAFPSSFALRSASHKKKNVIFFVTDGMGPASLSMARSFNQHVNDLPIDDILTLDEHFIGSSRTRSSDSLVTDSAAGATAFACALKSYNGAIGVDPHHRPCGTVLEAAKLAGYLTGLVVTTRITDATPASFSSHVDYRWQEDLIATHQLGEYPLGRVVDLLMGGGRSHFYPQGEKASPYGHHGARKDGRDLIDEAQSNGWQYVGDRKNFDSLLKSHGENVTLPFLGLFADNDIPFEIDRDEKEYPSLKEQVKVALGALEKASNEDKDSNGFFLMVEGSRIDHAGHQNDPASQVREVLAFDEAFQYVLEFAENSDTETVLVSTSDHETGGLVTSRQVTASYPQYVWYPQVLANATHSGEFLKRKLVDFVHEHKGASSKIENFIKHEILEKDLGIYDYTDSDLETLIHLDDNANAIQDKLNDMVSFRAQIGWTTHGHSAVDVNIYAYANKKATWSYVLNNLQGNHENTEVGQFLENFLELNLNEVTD

[2] = target: T2, Sdt1 (Saccharomyces cerevisiae, UniProt P53078); assay: malachite green phosphate release; details: 100 μM CMP (also inhibited with NMN), 5 mM MgCl2, pH 7.5, 37 °C, 30 min; mM INAM
T2 construct: recombinant, C-terminal His tag, commercial (Echelon Biosciences)

[3] = target: T3, Phm8 (Saccharomyces cerevisiae, UniProt P40025); assay: malachite green phosphate release; details: 100 μM CMP, 5 mM MgCl2, pH 7.5, 37 °C, 30 min; mM INAM
T3 construct: pET-16b (NdeI), E. coli BL21(DE3), C-terminal 10xHis as printed, Ni-NTA purified
T3 sequence (P40025 1-321): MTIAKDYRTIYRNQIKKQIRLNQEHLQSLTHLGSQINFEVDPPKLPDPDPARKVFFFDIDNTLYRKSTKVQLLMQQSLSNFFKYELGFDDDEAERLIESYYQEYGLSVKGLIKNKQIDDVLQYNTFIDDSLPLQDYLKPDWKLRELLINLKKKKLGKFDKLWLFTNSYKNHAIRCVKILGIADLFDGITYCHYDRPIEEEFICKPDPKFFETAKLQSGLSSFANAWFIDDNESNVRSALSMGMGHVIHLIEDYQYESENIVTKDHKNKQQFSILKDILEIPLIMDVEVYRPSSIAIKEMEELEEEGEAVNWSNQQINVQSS

[4] = target: T4, Pho13 (Saccharomyces cerevisiae, UniProt P19881); assay: pNPP hydrolysis, A400, whole cell extract of pho8Δ; details: pNPP substrate, Mg2+, Zn2+, pH 8.8, 37 °C, 15 min; weak inhibitor
T4 construct: native enzyme in whole cell extract of pho8Δ strain (Pho13 the remaining alkaline phosphatase)
T4 sequence (P19881 1-312): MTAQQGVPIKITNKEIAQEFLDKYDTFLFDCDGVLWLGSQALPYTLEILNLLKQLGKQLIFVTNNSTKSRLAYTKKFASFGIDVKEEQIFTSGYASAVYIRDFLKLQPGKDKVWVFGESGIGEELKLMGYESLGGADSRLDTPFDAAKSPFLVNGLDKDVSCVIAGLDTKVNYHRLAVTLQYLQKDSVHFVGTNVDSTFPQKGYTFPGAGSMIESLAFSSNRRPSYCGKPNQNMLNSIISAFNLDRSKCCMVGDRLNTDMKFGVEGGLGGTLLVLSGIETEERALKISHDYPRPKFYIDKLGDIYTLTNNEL

[5] = target: T2, Sdt1; assay: malachite green phosphate release; details: 100 μM substrate, 5 mM MgCl2, pH 7.5, 37 °C, 30 min
[6] = target: T2, Sdt1; assay: malachite green phosphate release; details: activator; 100 μM NMN, 5 mM MgCl2, pH 7.5, 37 °C, 30 min; mM NAM
[7] = target: T1, Pho8; assay: pNPP hydrolysis, A400, whole cell extract of pho13Δ; details: Mg2+, Zn2+, pH 8.8, 37 °C, 15 min
[8] = target: T4, Pho13; assay: pNPP hydrolysis, A400, whole cell extract of pho8Δ; details: Mg2+, Zn2+, pH 8.8, 37 °C, 15 min

T2 sequence (P53078 whole entry): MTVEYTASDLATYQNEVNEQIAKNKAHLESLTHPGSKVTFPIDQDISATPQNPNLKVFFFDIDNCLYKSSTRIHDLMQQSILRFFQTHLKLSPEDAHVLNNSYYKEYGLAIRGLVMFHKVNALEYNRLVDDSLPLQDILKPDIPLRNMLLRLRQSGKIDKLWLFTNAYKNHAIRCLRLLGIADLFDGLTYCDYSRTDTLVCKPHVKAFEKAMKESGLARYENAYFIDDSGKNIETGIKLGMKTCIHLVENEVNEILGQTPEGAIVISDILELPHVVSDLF

NC(=O)c1ccncc1 [isonicotinamide]
inhibition of alkaline phosphatase activity [1]: suggesting that Pho8 and Pho13 are both weak inhibitory targets
inhibition of nucleotidase activity [2]: Sdt1 and Phm8 activity on CMP and NMN was significantly inhibited by INAM
inhibition of nucleotidase activity [3]: INAM inhibition of recombinant Sdt1 and Phm8 nucleotidase activity on CMP in vitro
inhibition of alkaline phosphatase activity [4]: suggesting that Pho8 and Pho13 are both weak inhibitory targets

NC(=O)c1ccc[n+]([C@@H]2O[C@H](COP(=O)(O)O)[C@@H](O)[C@H]2O)c1 [nicotinamide mononucleotide]
malachite green phosphate release [5]: INAM inhibition of recombinant Sdt1 nucleotidase activity on NMN in vitro

NC(=O)c1cccnc1 [nicotinamide]
stimulation of nucleotidase activity [6]: NAM caused significant dose-dependent stimulation of Sdt1 nucleotidase activity with NMN as substrate

O=[N+]([O-])c1ccc(OP(=O)(O)O)cc1 [p-nitrophenyl phosphate]
pNPP hydrolysis, A400, whole cell extract of pho13Δ [7]: both utilize pNPP as a substrate in vitro
pNPP hydrolysis, A400, whole cell extract of pho8Δ [8]: both utilize pNPP as a substrate in vitro
